Calls of active or inactive are those of the source.
What was measured:
[1] = HIV-1 Vif–A3G interaction blockers – biochemical, TR-FRET, GST-Vif 1-94, biotin-A3G peptide, dose response retest, primary screen (AID 1117319); format: functional;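 also: TR-FRET signal of purified GST-Vif binding a biotinylated A3G peptide; inhibitors lower the FRET signal by blocking Vif and A3G binding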
Protein Tat = biological target: T1, Protein Tat (Human immunodeficiency virus type 1 group M subtype B (isolate HXB2)(HIV-1), UniProt P04608); format: functional;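 also: tat binding to TAR RNA read out by fluorescence polarization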
T1 sequence (P04608 whole entry): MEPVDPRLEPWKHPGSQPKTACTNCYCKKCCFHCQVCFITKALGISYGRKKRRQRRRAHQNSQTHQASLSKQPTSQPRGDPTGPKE

[2] = HPDE-C7 pancreatic duct cell viability loss – fluorescence, HTS (AID 430); format: functional, cell-based; details: Homo sapiens
[3] = biological target: T2, Mannose-6-phosphate isomerase (Homo sapiens, UniProt P34949); test: MPI inhibition at elevated mannose 6-phosphate – biochemical, fluorescence intensity, high mannose 6-phosphate, primary screen (AID 1220)
T2 sequence (P34949 whole entry): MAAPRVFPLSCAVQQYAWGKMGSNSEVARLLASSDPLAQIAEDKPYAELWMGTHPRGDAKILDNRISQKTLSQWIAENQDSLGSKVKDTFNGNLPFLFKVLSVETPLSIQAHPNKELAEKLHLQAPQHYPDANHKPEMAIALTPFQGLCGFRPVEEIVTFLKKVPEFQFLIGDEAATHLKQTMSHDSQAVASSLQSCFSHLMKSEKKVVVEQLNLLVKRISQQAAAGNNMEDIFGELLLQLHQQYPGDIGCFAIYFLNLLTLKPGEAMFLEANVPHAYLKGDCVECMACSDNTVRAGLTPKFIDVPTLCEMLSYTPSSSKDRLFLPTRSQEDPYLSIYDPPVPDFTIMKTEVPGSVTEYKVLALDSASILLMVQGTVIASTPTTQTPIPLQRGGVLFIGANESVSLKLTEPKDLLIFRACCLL

[4] = viability loss of HPDE-C7K cells – cell-based, fluorescence, HTS, primary screen (AID 431); format: functional; details: Homo sapiens
[5] = antiviral protection against BTV-induced cell death – arbovirus, BSR cells, confirmation (AID 1250); format: functional;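 also: protection from viral cytopathic effect measured as cell viability by ATP luminescence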
[6] = microbe, parasite or virus in culture; format: functional; details: Mycobacterium tuberculosis
[7] = biological target: 5-hydroxytryptamine receptor 2A (Mus musculus, UniProt P35363); format: functional, cell-based;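 also: CHO-K1 cells with tagged receptor and beta-arrestin; agonist potency measured as compound-induced activation of the receptor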
Mu-type opioid receptor = Mu-type opioid receptor (Homo sapiens, UniProt P35372); format: functional, cell-based;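 also: U2OS cells with beta-arrestin recruitment to OPRM1 by beta-gal complementation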
[8] = M. tuberculosis growth inhibition, HTS (AID 449762); format: functional
Ephrin type-A receptor 4 = Ephrin type-A receptor 4 (Mus musculus, UniProt Q03137); test: EphA4 ligand-binding antagonists – biochemical, colorimetric, mouse EphA4, primary screen (AID 689); format: functional
[9] = HEK-293T viability loss after treatment – luminescence, T-cell screen hits, cytotoxicity control for TCR NF-kB inhibitor project, dose response (AID 489026); format: functional, cell-based;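 also: cells exposed to compound about 14 hours before the viability readout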
[10] = alpha-synuclein stem-loop translation blockers – luminescence, H4 neuroglioblastoma cells, dose confirmation, confirmation (AID 2454); format: functional, cell-based;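 also: H4 neuroglioblastoma cells carrying an alpha-synuclein 5'UTR luciferase reporter; potency for inhibition of the luciferase signal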
cells [11] = format: functional, cell-based
[12] = alpha-synuclein stem-loop luciferase translation blockers – H4 neuroglioma cells, luminescence, confirmation (AID 1988); format: functional, cell-based
[13] = Luminescence-based dose response cell-based high throughput screening assay for cytotoxic compounds using the IEC-6 intestinal epithelial cell line. [Related pubchem assays: 1858 (Summary AID.), 1825 (Counterscreen.), 1907 (Confirmation screen.)]; format: functional
[14] = luciferase reporter signal reduction – luminescence, H4-C neuroglioblastoma cells, dose response (AID 2458); format: functional, cell-based;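 also: H4 neuroglioblastoma cells stably carrying a luciferase reporter gene fusion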
[15] = luciferase reporter signal suppression in cells – H4 neuroglioma cells, luminescence, dose response (AID 1990); format: functional, cell-based
[16] = NIH3T3 cell viability loss – ATP luminescence, mouse fibroblasts, counter-screen, dose response (AID 2010); format: functional, cell-based;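 also: cells exposed to compound for about 90 hours before reading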
cells [17] = test: cells
[18] = Trypanosoma cruzi growth suppression in host cells – NIH3T3 host cells, beta-gal luminescence, confirmation (AID 2044); format: functional, cell-based;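 also: intracellular parasites grown in NIH/3T3 mouse fibroblasts as host cells; luminescent beta-galactosidase reporter signal from transgenic T. cruzi replicating inside host cells; inhibitors lower the luminescence signal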

Ephrin type-A receptor 4, sequence (Q03137 whole entry): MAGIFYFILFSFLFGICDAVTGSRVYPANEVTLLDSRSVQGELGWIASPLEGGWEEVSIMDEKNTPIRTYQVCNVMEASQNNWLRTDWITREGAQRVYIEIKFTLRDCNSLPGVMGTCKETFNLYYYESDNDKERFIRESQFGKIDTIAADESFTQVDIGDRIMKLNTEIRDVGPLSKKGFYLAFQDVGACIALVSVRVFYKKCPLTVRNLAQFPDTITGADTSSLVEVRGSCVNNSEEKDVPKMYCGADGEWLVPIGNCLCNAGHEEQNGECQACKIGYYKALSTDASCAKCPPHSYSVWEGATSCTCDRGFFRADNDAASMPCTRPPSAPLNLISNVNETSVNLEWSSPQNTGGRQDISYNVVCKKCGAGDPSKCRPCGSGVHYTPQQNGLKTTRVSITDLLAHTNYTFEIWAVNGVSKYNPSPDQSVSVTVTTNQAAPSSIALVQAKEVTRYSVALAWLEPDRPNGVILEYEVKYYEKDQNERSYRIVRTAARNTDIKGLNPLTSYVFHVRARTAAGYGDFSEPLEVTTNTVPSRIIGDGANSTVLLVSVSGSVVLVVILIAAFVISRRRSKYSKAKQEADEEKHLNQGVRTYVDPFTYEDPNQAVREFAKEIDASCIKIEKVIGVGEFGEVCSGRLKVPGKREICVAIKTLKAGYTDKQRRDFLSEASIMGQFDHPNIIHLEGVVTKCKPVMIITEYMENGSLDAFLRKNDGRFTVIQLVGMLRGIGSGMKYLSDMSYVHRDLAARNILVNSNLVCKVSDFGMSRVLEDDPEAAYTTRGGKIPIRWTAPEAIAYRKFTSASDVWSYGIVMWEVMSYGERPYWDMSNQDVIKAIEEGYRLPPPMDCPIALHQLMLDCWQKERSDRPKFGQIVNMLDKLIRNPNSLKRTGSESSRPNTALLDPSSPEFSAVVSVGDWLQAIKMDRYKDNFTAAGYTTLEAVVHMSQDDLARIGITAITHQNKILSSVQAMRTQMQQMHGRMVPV
Mu-type opioid receptor, sequence (P35372 whole entry): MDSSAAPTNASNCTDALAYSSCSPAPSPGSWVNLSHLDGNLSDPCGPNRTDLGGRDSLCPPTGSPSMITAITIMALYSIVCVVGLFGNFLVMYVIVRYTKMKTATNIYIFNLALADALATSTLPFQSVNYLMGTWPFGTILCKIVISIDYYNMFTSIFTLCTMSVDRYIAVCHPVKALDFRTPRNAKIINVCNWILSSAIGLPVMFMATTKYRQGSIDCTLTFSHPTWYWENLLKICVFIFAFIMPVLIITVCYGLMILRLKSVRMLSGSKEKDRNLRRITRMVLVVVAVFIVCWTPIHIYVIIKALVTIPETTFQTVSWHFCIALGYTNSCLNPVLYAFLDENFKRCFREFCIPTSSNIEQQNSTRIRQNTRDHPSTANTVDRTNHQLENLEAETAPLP
5-hydroxytryptamine receptor 2A, sequence (P35363 whole entry): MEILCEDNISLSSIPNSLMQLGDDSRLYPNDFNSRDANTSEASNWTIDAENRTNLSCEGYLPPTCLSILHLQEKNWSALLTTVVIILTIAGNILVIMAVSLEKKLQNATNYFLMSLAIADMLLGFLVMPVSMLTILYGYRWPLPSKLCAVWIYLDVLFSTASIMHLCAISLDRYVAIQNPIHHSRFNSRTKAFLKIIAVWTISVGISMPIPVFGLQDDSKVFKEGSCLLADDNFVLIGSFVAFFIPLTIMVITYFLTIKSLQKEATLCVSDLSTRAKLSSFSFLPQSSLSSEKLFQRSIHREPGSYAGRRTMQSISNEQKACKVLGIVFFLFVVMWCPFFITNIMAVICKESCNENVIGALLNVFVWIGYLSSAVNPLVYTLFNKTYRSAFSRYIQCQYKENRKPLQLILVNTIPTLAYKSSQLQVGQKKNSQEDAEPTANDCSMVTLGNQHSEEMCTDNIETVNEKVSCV

With `CCOc1ccc(-n2c(Cc3cc(O)nc(O)n3)nnc2SCC(N)=O)cc1` the IC50 [1] was > 100 µM (active) and the IC50 (Protein Tat) was > 100 µM (active).
With `O=C(CCN1CCN(c2ccccc2F)CC1)c1ccc(Br)cc1` the EC50 [2] was 7.29 µM (active), the IC50 [3] was 38.2 µM (active) and the EC50 [4] was 8.84 µM (active).
With `COCCn1c(-c2ccccc2)cnc1SCC(=O)Nc1cccc2ccccc12` the IC50 [5] was 27.4 µM (active).
For `CC(C)C[C@H]1C(=O)N2CCC[C@H]2[C@]2(O)O[C@](NC(=O)C3C=C4c5cccc6[nH]c(Br)c(c56)C[C@H]4N(C)C3)(C(C)C)C(=O)N12` (some centres not stated), the CC50 [6] was > 40 µM (active), the EC50 [7] was 0.0038 µM (active) and the EC50 (Mu-type opioid receptor) was 92.5 µM (inactive). For the same compound, the IC50 [8] was > 100 µM (active).
With `CCc1cc(C(=O)O)c(NC(=O)c2cc(OC)c(OC)c(OC)c2)s1` the IC50 [5] was 29.2 µM (active).
In the case of `Nc1ccc(Br)c2c1C(=O)c1ccccc1C2=O`, the IC50 (Ephrin type-A receptor 4) is reported as 13.5 µM (active).
With `CCCCCC(=O)N[C@@H](c1ccccc1)[C@@H](O)C(=O)O[C@H]1C[C@@]2(O)[C@@H](OC(=O)c3ccccc3)C3[C@](C)(C(=O)[C@H](OC(C)=O)C(=C1C)C2(C)C)[C@@H](O)C[C@H]1OC[C@@]31OC(C)=O` (some centres not stated) the IC50 [9] was > 80 µM (inactive), the EC50 [10] was 0.402 µM (active) and the EC50 (cells [11]) was 0.253 µM (active). The EC50 [12] was < 0.1 µM (active), the IC50 [13] was 0.0618 µM (active) and the EC50 [14] was 0.229 µM (active). The EC50 [15] was < 0.1 µM (active).
In the case of `CN1CCN(CC(C)(C)NS(=O)(=O)c2ccc(Cl)cc2)CC1`, the EC50 [16] is reported as > 60 µM (not active), the EC50 (cells [17]) is reported as 0.203 µM (active) and the EC50 [18] is reported as < 0.1 µM (active).

Reference: ChEMBL document CHEMBL1201862, “PubChem BioAssay data set” (2004)
